Laboratory results reported in article PMC2765192 (Journal of medicinal chemistry, 2009).

Columns and labels:
human mGluR4 [1] = molecular target: T1, human mGluR4 (Homo sapiens, UniProt Q14833); assay: Fold shift of glutamate concentration-response curve, human mGluR4/Gqi5 cells; conditions: fold shift of glutamate response curve to the left
human mGluR4 [2] = molecular target: T1, human mGluR4; type: cell-based; conditions: for mGluR4 PAM activity (in words): human mGluR4
[3] = Metabolic stability in rat liver microsomes; conditions: parent remaining after the incubation period
[4] = Metabolic stability in human liver microsomes; conditions: parent remaining after the incubation period
rat mGluR4 = rat mGluR4 (Rattus norvegicus, UniProt P31423)
mGluR5 = mGluR5 (Homo sapiens, UniProt P41594); assay: mGluR subtype selectivity: mGluR5; conditions: for separation in potencies compared to mGluR4: mGluR5 vs mGluR4; for PAM activity at mGluR5 (in words): selectivity
mGluR8 = mGluR8 (Homo sapiens, UniProt O00222); assay: mGluR subtype selectivity: mGluR8; conditions: for separation in potencies compared to mGluR4: mGluR8 vs mGluR4; for PAM activity at mGluR8 (in words): selectivity
[5] = Rat pharmacokinetics, brain and plasma levels after intraperitoneal dosing; conditions: rats, nontoxic vehicles

mGluR5, sequence (P41594 21-1212): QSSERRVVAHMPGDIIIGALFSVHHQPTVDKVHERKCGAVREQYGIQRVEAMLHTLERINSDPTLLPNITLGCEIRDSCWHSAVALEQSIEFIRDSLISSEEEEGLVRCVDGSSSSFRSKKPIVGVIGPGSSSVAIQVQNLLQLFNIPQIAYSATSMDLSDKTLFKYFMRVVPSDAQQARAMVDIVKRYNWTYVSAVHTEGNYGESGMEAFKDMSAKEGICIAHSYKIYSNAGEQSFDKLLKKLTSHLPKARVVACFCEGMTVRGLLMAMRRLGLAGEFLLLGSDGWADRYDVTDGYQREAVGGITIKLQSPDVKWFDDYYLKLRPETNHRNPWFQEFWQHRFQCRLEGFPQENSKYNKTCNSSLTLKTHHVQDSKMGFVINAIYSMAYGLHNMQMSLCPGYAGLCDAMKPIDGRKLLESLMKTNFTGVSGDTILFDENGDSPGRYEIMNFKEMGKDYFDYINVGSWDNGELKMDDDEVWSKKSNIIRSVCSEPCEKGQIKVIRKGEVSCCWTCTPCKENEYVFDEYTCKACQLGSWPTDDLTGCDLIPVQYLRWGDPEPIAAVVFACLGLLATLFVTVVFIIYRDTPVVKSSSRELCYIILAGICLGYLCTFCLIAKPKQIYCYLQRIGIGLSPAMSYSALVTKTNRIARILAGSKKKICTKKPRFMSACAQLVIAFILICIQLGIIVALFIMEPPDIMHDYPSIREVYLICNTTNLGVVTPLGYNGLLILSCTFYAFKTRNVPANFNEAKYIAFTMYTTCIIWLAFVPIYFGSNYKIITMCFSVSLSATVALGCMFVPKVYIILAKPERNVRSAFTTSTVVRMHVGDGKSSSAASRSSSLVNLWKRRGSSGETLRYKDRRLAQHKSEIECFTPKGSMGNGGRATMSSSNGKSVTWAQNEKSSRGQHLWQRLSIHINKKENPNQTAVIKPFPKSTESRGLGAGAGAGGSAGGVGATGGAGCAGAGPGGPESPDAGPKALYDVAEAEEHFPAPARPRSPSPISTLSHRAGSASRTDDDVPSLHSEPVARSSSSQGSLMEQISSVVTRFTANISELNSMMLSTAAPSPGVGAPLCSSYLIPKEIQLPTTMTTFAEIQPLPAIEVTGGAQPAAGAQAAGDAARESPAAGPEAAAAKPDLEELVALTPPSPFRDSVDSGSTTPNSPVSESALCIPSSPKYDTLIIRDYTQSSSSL
T1 sequence (Q14833 33-912): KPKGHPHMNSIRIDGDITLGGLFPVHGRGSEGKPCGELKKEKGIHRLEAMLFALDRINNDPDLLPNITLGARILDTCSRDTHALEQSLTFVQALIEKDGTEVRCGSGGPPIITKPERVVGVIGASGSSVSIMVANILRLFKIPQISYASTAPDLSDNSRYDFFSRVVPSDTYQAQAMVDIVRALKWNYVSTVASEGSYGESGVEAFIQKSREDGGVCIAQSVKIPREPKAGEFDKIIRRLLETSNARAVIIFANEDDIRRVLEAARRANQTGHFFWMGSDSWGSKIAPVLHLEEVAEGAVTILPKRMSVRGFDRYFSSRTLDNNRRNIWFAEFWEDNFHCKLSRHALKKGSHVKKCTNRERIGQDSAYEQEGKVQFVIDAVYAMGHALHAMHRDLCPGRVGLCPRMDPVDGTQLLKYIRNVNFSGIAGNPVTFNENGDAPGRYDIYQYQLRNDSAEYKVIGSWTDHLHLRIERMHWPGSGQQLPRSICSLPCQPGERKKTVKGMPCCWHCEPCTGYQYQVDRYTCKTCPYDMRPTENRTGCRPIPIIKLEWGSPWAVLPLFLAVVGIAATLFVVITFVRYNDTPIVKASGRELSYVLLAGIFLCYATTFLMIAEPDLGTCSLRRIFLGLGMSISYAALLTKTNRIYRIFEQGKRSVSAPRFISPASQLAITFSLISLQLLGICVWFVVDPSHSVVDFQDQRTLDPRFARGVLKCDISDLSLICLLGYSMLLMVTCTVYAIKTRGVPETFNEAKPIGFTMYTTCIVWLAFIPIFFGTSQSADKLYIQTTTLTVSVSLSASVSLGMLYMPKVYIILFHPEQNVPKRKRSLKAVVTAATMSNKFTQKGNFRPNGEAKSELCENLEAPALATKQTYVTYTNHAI
mGluR8, sequence (O00222 34-908, species assumed): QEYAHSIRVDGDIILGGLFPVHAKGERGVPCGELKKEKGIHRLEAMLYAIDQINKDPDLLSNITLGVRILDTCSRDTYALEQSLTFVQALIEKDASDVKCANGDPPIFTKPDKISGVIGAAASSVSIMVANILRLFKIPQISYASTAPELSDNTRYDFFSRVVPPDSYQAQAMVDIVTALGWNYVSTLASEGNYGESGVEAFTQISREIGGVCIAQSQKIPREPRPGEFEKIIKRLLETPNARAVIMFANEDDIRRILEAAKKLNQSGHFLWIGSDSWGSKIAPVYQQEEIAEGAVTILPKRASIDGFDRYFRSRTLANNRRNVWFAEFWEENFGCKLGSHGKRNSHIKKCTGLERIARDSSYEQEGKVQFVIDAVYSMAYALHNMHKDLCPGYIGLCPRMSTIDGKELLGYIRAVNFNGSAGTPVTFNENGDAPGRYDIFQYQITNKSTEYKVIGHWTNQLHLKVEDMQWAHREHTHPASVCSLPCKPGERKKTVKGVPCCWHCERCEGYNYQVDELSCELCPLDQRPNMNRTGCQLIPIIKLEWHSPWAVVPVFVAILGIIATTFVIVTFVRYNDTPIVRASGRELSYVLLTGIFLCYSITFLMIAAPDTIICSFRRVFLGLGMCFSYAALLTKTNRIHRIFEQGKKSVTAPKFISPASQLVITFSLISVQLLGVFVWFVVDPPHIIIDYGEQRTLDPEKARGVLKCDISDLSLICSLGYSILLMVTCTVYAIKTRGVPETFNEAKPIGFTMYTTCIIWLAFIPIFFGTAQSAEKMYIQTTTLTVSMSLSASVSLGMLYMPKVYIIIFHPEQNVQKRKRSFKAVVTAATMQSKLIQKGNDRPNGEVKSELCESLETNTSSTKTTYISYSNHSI
rat mGluR4, sequence (P31423 33-912): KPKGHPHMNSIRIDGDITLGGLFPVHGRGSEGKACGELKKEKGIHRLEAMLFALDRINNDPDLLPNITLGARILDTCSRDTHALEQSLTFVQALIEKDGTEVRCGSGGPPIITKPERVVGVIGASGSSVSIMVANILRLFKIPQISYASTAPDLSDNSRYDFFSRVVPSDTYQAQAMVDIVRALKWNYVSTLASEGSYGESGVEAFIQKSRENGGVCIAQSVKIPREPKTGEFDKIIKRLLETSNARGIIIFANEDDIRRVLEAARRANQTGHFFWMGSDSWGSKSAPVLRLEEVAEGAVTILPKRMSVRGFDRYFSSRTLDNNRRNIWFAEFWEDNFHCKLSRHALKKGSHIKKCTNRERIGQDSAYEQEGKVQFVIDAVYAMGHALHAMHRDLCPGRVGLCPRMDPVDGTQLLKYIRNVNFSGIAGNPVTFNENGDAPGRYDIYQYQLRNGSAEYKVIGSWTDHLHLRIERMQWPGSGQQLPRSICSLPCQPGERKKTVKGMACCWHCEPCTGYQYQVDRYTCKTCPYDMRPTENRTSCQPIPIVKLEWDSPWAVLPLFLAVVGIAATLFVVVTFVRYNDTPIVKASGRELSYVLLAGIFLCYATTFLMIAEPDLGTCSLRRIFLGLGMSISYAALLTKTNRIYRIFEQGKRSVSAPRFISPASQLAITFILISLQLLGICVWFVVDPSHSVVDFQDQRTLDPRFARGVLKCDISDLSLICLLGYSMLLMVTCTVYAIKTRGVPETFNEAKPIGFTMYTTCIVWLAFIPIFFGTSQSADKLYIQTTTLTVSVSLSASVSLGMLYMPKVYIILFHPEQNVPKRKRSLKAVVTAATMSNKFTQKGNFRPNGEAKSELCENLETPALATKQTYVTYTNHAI

Row | Compound | mGluR4 PAM activity (in words) (human mGluR4 [2]) | RLM (% remaining) [3] | HLM (% remaining) [4] | further results
1 | O=C(Nc1ccccc1)[C@]12C[C@H]1/C(=N\O)c1ccccc1O2 [Compound 1, (-)-PHCCC] |  |  |  | FS (h) (human mGluR4 [1]): 7.0±0.2
2 | O=C(Nc1ccc(Cl)c(Cl)c1)C1CCCCC1 [Compound 8h] | inactive |  |  | 
3 | O=C(Nc1ccc(Cl)c(Cl)c1)c1ccccc1 [Compound 8i] | inactive |  |  | 
4 | O=C(Nc1ccc(Cl)c(Cl)c1)c1cnccn1 [Compound 8k] | lost activity |  |  | 
5 | O=C(Nc1ccc(Cl)c(Cl)c1)c1ccncn1 [Compound 8l] | retained potency |  |  | 
6 | COc1cc(NC(=O)c2ccccn2)ccc1F [Compound 9a] |  | 6.3 % remaining | 3.0 % remaining | 
7 | COc1cc(NC(=O)c2ccccn2)ccc1Cl [Compound 9b] | submicromolar potency | 1.8 % remaining | 5.3 % remaining | potency at rat mGluR4 (in words) (rat mGluR4): submicromolar potency; separation in potencies compared to mGluR4 (mGluR5): > 20 fold; PAM activity at mGluR5 (in words) (mGluR5): weak PAM activity; separation in potencies compared to mGluR4 (mGluR8): > 20 fold; PAM activity at mGluR8 (in words) (mGluR8): weak PAM activity; central penetration (in words) [5]: centrally penetrant
8 | O=C(Nc1cccc(OC(F)F)c1)c1ccccn1 [Compound 9c] | submicromolar potency | 1.4 % remaining | 2.4 % remaining | potency at rat mGluR4 (in words) (rat mGluR4): submicromolar potency; separation in potencies compared to mGluR4 (mGluR5): > 20 fold; PAM activity at mGluR5 (in words) (mGluR5): weak PAM activity; separation in potencies compared to mGluR4 (mGluR8): > 20 fold; PAM activity at mGluR8 (in words) (mGluR8): weak PAM activity; central penetration (in words) [5]: centrally penetrant
9 | O=C(Nc1cccc(OC(F)(F)F)c1)c1ccccn1 [Compound 9d] |  | 20 % remaining | 22 % remaining | loss of activity (human mGluR4 [2]; 9d (trifluoromethoxy) vs. 9c (difluoromethoxy)): > 10 fold
10 | O=C(Nc1cccc(C(F)(F)F)c1)c1ccccn1 [Compound 9e] |  | 19 % remaining |  | 
11 | O=C(Nc1cccc(C(F)(F)F)n1)c1ccccn1 [Compound 9o] | inactive |  |  | 
12 | COc1cc(NC(=O)c2ccccn2)ncn1 [Compound 9p] | inactive |  |  | 
